Among the data in US9862717B2 (Merck Patent GmbH, priority 2014, dated 2018) are IC50 values, retold here.

T1 sequence (P49336 whole entry): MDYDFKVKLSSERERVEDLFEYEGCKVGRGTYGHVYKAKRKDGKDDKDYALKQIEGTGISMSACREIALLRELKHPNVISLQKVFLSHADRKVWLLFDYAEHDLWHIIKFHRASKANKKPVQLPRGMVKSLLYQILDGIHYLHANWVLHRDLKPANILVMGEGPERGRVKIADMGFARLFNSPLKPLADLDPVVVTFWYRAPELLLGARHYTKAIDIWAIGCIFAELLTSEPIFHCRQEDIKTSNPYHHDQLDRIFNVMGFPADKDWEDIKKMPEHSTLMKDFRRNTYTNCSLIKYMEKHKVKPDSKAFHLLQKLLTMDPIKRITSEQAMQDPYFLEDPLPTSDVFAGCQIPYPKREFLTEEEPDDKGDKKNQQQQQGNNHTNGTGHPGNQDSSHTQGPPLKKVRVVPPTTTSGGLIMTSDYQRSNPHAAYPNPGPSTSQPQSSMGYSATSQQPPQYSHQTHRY
T1 sequence (P24863 whole entry partner): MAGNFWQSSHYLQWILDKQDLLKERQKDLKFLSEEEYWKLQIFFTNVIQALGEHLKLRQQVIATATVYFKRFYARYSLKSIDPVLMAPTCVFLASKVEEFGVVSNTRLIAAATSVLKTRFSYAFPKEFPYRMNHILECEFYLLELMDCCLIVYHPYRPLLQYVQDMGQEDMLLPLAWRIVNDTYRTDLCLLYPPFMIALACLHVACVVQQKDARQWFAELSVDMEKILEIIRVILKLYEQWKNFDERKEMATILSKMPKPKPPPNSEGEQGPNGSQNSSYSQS

The first test addresses T1, CDK8/CycC (Homo sapiens, UniProt P49336).
T1 construct: purchased Invitrogen PV4402
Description: FRET based Lanthascreen binding competition assay for CDK8 inhibitory activity. The settings on record: CDK8 co-expressed with CycC; class symbols; read-out: IC50. The gist of the method:
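Competition binding of a dye-labeled ATP-competitive Alexa647 probe to CDK8 co-expressed with CycC, Eu-labeled via biotinylated anti-His antibody/streptavidin.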
A general note: TR-FRET usually uses a lanthanide donor and a delayed reading to cut background.
What is called IC50 is the concentration that gives 50% inhibition. On to `CCCc1n[nH]c2ccc(C(=O)N3CCC[C@@H]3c3ccc(Cl)cc3)cc12` [compound 12, [(R)-2-(4-Chloro-phenyl)-pyrrolidin-1-yl]-(3-propyl-1H-indazol-5-yl)-methanone], for which the IC50 fell in the range of 0.1 to 1 µM.
The same measure, in the same setting: next, `Cc1n[nH]c2ncc(C(=O)N3CCCC3c3cccc(Cl)c3)cc12` (stereo not drawn) [compound 21, [2-(3-Chloro-phenyl)-pyrrolidin-1-yl]-(3-methyl-1H-pyrazolo[3,4-b]pyridin-5-yl)-methanone]: 0.01 to 0.1 µM; `Nc1n[nH]c2ccc(C(=O)N3CCCCC3Cc3ccccc3)cc12` (stereo not drawn) [compound 81, (3-Amino-1H-indazol-5-yl)-(2-benzyl-piperidin-1-yl)-methanone]: 0.1 to 1 µM.
For `CCCc1n[nH]c2ccc(C(=O)N3CCC[C@H]3c3ccc(Cl)cc3)cc12` [compound 11, [(S)-2-(4-Chloro-phenyl)-pyrrolidin-1-yl]-(3-propyl-1H-indazol-5-yl)-methanone], the IC50 was < 0.01 µM.
In the case of `Cc1n[nH]c2ncc(C(=O)N3CCCC[C@H]3c3ccccc3)cc12` [compound 28, (3-Methyl-1H-pyrazolo[3,4-b]pyridin-5-yl)-((S)-2-phenyl-piperidin-1-yl)-methanone], the IC50 is 0.01 to 0.1 µM.
On the same count and under the same terms, next, `CCCc1n[nH]c2ccc(C(=O)N3CCCC3c3ccc(Cl)cc3)cc12` (stereo not drawn) [compound 9, [2-(4-Chloro-phenyl)-pyrrolidin-1-yl]-(3-propyl-1H-indazol-5-yl)-methanone]: < 0.01 µM; `Cc1n[nH]c2ncc(C(=O)N3CCCCC[C@H]3c3cccc(F)c3)cc12` [compound 150, [(S)-2-(3-Fluoro-phenyl)-azepan-1-yl]-(3-methyl-1H-pyrazolo[3,4-b]pyridin-5-yl)-methanone]: 0.1 to 1 µM; `Nc1n[nH]c2ccc(C(=O)N3CC[C@H](c4ccccc4)C3)cc12` [compound 87, (3-Amino-1H-indazol-5-yl)-((R)-3-phenyl-pyrrolidin-1-yl)-methanone]: 0.1 to 1 µM.
Still for that read-out and setting: next, `O=C(c1ccc2[nH]nc(F)c2c1)N1CCC[C@H]1c1ccc(Cl)cc1` [compound 216, [(S)-2-(4-Chloro-phenyl)-pyrrolidin-1-yl]-(3-fluoro-1H-indazol-5-yl)-methanone]: < 0.01 µM; `Cc1n[nH]c2ncc(C(=O)N3CCCC3c3ccc(Cl)c(F)c3)cc12` (stereo not drawn) [compound 179, [2-(4-Chloro-3-fluoro-phenyl)-pyrrolidin-1-yl]-(3-methyl-1H-pyrazolo[3,4-b]pyridin-5-yl)-methanone]: 0.01 to 0.1 µM; `Cc1n[nH]c2ncc(C(=O)N3CCCC3c3ccccc3OCC(F)(F)F)cc12` (stereo not drawn) [compound 65, (3-Methyl-1H-pyrazolo[3,4-b]pyridin-5-yl)-{2-[2-(2,2,2-trifluoro-ethoxy)-phenyl]-pyrrolidin-1-yl}-methanone]: 0.1 to 1 µM.
On the same count and under the same terms, next, `Cc1n[nH]c2ncc(C(=O)N3CCC(O)(c4ccccc4)C3)cc12` (racemic) [compound 193, (3-Hydroxy-3-phenyl-pyrrolidin-1-yl)-(3-methyl-1H-pyrazolo[3,4-b]pyridin-5-yl)-methanone]: 1 to 10 µM; `Cc1n[nH]c2ncc(C(=O)N3C[C@@H](O)[C@H](c4ccc(Cl)cc4)C3)cc12` [compound 255, [(3R,4S)-3-(4-Chloro-phenyl)-4-hydroxy-pyrrolidin-1-yl]-(3-methyl-1H-pyrazolo[3,4-b]pyridin-5-yl)-methanone]: 1 to 10 µM.
`Cc1n[nH]c2ncc(C(=O)N3C[C@H](O)C[C@H]3c3ccc(Cl)cc3)cc12` [compound 261, [(2S,4R)-2-(4-Chloro-phenyl)-4-hydroxy-pyrrolidin-1-yl]-(3-methyl-1H-pyrazolo[3,4-b]pyridin-5-yl)-methanone]: the half-inhibitory concentration (IC50) was 0.1 to 1 µM.
On the same count and under the same terms, next, `Cc1n[nH]c2ncc(C(=O)N3C[C@@H](C)C[C@@H]3c3ccc(C(F)(F)F)cc3)cc12` [compound 231, (3-Methyl-1H-pyrazolo[3,4-b]pyridin-5-yl)-[(2R,4S)-4-methyl-2-(4-trifluoromethyl-phenyl)-pyrrolidin-1-yl]-methanone]: 1 to 10 µM.
On the same count and under the same terms, next, `Cc1n[nH]c2ncc(C(=O)N3CCCCC(c4ccc(Cl)cc4)C3)cc12` (stereo not drawn) [compound 59, [3-(4-Chloro-phenyl)-azepan-1-yl]-(3-methyl-1H-pyrazolo[3,4-b]pyridin-5-yl)-methanone]: 0.01 to 0.1 µM; `Cc1ccc([C@@H]2CCCN2C(=O)c2cnc3[nH]nc(C)c3c2)cc1` [compound 136, (3-Methyl-1H-pyrazolo[3,4-b]pyridin-5-yl)-((S)-2-p-tolyl-pyrrolidin-1-yl)-methanone]: < 0.01 µM.
On the same count and under the same terms, next, `Nc1n[nH]c2ccc(C(=O)N3CCCCCC3c3cccc(F)c3)cc12` (stereo not drawn) [compound 107, (3-Amino-1H-indazol-5-yl)-[2-(3-fluoro-phenyl)-azepan-1-yl]-methanone]: 0.1 to 1 µM; `Cc1n[nH]c2ncc(C(=O)N3CCC(c4ccc(Cl)cc4)C3)cc12` (stereo not drawn) [compound 68, [3-(4-Chloro-phenyl)-pyrrolidin-1-yl]-(3-methyl-1H-pyrazolo[3,4-b]pyridin-5-yl)-methanone]: < 0.01 µM.
In the case of `Cc1n[nH]c2ncc(C(=O)N3CC[C@H]3c3ccc(F)cc3)cc12` [compound 56, [(S)-2-(4-Fluoro-phenyl)-azetidin-1-yl]-(3-methyl-1H-pyrazolo[3,4-b]pyridin-5-yl)-methanone], the IC50 was in the range of 0.01 to 0.1 µM.
The same measure, in the same setting: next, `Nc1n[nH]c2ncc(C(=O)N3CCC[C@H]3c3ccc(Cl)cc3)cc12` [compound 96, (3-Amino-1H-pyrazolo[3,4-b]pyridin-5-yl)-[(S)-2-(4-chloro-phenyl)-pyrrolidin-1-yl]-methanone]: 0.01 to 0.1 µM; `Cc1n[nH]c2ncc(C(=O)N3CCC[C@@H]3c3ccc(C#N)cc3)cc12` [compound 248, 4-[(R)-1-(3-Methyl-1H-pyrazolo[3,4-b]pyridine-5-carbonyl)-pyrrolidin-2-yl]-benzonitrile]: 1 to 10 µM; `Cc1n[nH]c2ncc(C(=O)N3CCC(C)C3c3ccc(C(F)(F)F)cc3)cc12` (stereo not drawn) [compound 159, (3-Methyl-1H-pyrazolo[3,4-b]pyridin-5-yl)-[3-methyl-2-(4-trifluoromethyl-phenyl)-pyrrolidin-1-yl]-methanone]: 0.01 to 0.1 µM.
Consider `Nc1n[nH]c2ccc(C(=O)N3CCCC3c3ccccc3OCC(F)(F)F)cc12` (stereo not drawn) [compound 114, (3-Amino-1H-indazol-5-yl)-{2-[2-(2,2,2-trifluoro-ethoxy)-phenyl]-pyrrolidin-1-yl}-methanone], for which the concentration for half-maximal inhibition (IC50) lay in the range of 0.1 to 1 µM.
Same read-out and setting: next, `Cc1n[nH]c2ncc(C(=O)N3CCC[C@H]3c3cccnc3)cc12` [compound 129, (3-Methyl-1H-pyrazolo[3,4-b]pyridin-5-yl)-((S)-2-pyridin-3-yl-pyrrolidin-1-yl)-methanone]: 0.1 to 1 µM.

The same test, now with this note: IC50 [μM], CDK8 co-expressed with CycC; class symbols.
As to `Cc1n[nH]c2ccc(C(=O)N3CCC[C@H]3c3ccc(Cl)cc3)nc12` [compound 52, [(S)-2-(4-Chloro-phenyl)-pyrrolidin-1-yl]-(3-methyl-1H-pyrazolo[4,3-b]pyridin-5-yl)-methanone], the half-maximal inhibitory concentration (IC50) is < 0.01 µM.
On the same count and under the same terms, next, `Nc1n[nH]c2ccc(C(=O)N3CCC[C@H]3c3ccc(Br)cc3)cc12` [compound 76, (3-Amino-1H-indazol-5-yl)-[(S)-2-(4-bromo-phenyl)-pyrrolidin-1-yl]-methanone]: < 0.01 µM.
